# Laboratory results from PubChem BioAssay (NCI).
#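 Following 48 hours of exposure in 96-well plates, responses at five concentrations were used to interpolate endpoints linearly. TGI is the concentration that stops growth completely.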
# Key:
# Test in all cases: DTP human tumour cell line panel, 48 h
# SK-MEL-28 melanoma = tested on: SK-MEL-28 melanoma
# 786-0 renal = tested on: 786-0 renal
# SN12C renal = tested on: SN12C renal
# IGROV1 ovarian = tested on: IGROV1 ovarian
# UACC-62 melanoma = tested on: UACC-62 melanoma
# SK-MEL-5 melanoma = tested on: SK-MEL-5 melanoma
# HT29 colon = tested on: HT29 colon
# NCI-H460 lung = tested on: NCI-H460 lung
# LOX IMVI melanoma = tested on: LOX IMVI melanoma
# M14 melanoma = tested on: M14 melanoma
# M19-MEL melanoma = tested on: M19-MEL melanoma
# OVCAR-5 ovarian = tested on: OVCAR-5 ovarian
# SK-OV-3 ovarian = tested on: SK-OV-3 ovarian
# U251 CNS = tested on: U251 CNS
# UACC-257 melanoma = tested on: UACC-257 melanoma
# CCRF-CEM leukemia = tested on: CCRF-CEM leukemia
# UO-31 renal = tested on: UO-31 renal
# MCF7 breast = tested on: MCF7 breast
# SR leukemia = tested on: SR leukemia
# BT-549 breast = tested on: BT-549 breast
Compound,TGI (SK-MEL-28 melanoma),TGI (786-0 renal),TGI (SN12C renal),TGI (IGROV1 ovarian),TGI (UACC-62 melanoma),TGI (SK-MEL-5 melanoma),TGI (HT29 colon),TGI (NCI-H460 lung),TGI (LOX IMVI melanoma),TGI (M14 melanoma),TGI (M19-MEL melanoma),TGI (OVCAR-5 ovarian),TGI (SK-OV-3 ovarian),TGI (U251 CNS),TGI (UACC-257 melanoma),TGI (CCRF-CEM leukemia),TGI (UO-31 renal),TGI (MCF7 breast),TGI (SR leukemia),TGI (BT-549 breast)
CC(C)N1CN(C(C(=O)N[C@@H]2C(=O)N3C2SC(C)(C)C3C(=O)O)c2ccc(O)cc2)CSC1=S (stereo not given in full),> 100 µM,> 100 µM,> 100 µM,> 100 µM,> 100 µM,> 100 µM,> 100 µM,> 100 µM,> 100 µM,> 100 µM,> 100 µM,> 100 µM,> 100 µM,> 100 µM,> 100 µM,> 100 µM,> 100 µM,,,
CC(O)C1(CNc2cc(Cl)nc(N)n2)CC(CCc2ccccc2)C1 (stereo not given),27.8 µM,39 µM,20.9 µM,28.4 µM,24.5 µM,19.7 µM,25.7 µM,27.7 µM,16.9 µM,33.4 µM,,33.9 µM,29.2 µM,27.6 µM,19.8 µM,94.5 µM,24.6 µM,0.992 µM,35.8 µM,33.6 µM
COCn1c(C)c(C)c2c(=O)oc(N(C)C)nc21,> 100 µM,> 100 µM,> 100 µM,> 100 µM,> 100 µM,> 100 µM,> 100 µM,> 100 µM,> 100 µM,> 100 µM,,> 100 µM,> 100 µM,> 100 µM,> 100 µM,> 100 µM,> 100 µM,> 100 µM,> 100 µM,> 100 µM
COc1cc(S(=O)(=O)Nc2nc(-c3ccc(N4C(=O)/C(=C/c5ccccc5[N+](=O)[O-])N=C4c4ccccc4)cc3)cs2)ccc1Cl,> 100 µM,> 100 µM,> 100 µM,> 100 µM,92.8 µM,> 100 µM,> 100 µM,> 100 µM,> 100 µM,> 100 µM,,> 100 µM,> 100 µM,> 100 µM,> 100 µM,> 100 µM,> 100 µM,> 100 µM,> 100 µM,74.7 µM
Cc1ccc(NC2=N/C(=C/c3ccccc3)C(Cl)=N2)cc1,> 100 µM,> 100 µM,> 100 µM,> 100 µM,> 100 µM,> 100 µM,> 100 µM,> 100 µM,> 100 µM,> 100 µM,,> 100 µM,> 100 µM,> 100 µM,> 100 µM,> 100 µM,> 100 µM,> 100 µM,98.2 µM,> 100 µM
COc1ccc(/C(CC2OC(=O)c3ccccc32)=N\NC(=O)C[N+](C)(C)C)cc1 (stereo not given),55.5 µM,69.3 µM,> 100 µM,> 100 µM,40.1 µM,59.9 µM,40.9 µM,66.7 µM,65.9 µM,> 100 µM,,> 100 µM,> 100 µM,36.3 µM,91.8 µM,72 µM,79.6 µM,> 100 µM,45.4 µM,77.1 µM
COc1c(C)cc2c(c1O)C1NC(C2)[C@H](O)N2C3COC(=O)[C@@]4(CS[C@@H](c5c(OC(C)=O)c(C)c6c(c53)OCO6)C12)NCCC1=C4NC2C=CC=CC12 (stereo not given in full),< 0.01 µM,< 0.01 µM,0.0365 µM,< 0.01 µM,< 0.01 µM,< 0.01 µM,0.107 µM,,< 0.01 µM,< 0.01 µM,< 0.01 µM,,,< 0.01 µM,,< 0.01 µM,0.0342 µM,,,
CCOP(=O)(OCC)C(C(=O)OC)C(=O)C(=O)Nc1c(C)cc(Br)cc1C (stereo not given),> 100 µM,> 100 µM,> 100 µM,> 100 µM,> 100 µM,> 100 µM,> 100 µM,> 100 µM,> 100 µM,> 100 µM,> 100 µM,> 100 µM,> 100 µM,> 100 µM,> 100 µM,> 100 µM,> 100 µM,,,
CN(C)CCCCN1c2ccccc2Sc2ccc(C(=O)c3ccccc3)cc21,3.72 µM,4.83 µM,9.84 µM,7.89 µM,6.39 µM,3.42 µM,3.88 µM,5.46 µM,3.44 µM,3.25 µM,,13.8 µM,27.2 µM,7.52 µM,3.76 µM,6.61 µM,10 µM,3.05 µM,> 100 µM,18.8 µM
Cn1/c(=N\N=C(\CNCCO)[C@@H](O)[C@@H]2OC(c3ccccc3)OC[C@H]2O)sc2ccccc21 (stereo not given in full),33.2 µM,34.3 µM,35.2 µM,35 µM,31.2 µM,28.5 µM,38.6 µM,49 µM,31 µM,26.5 µM,,40.3 µM,37.7 µM,31.8 µM,39 µM,47.4 µM,30.1 µM,34.2 µM,41 µM,37.2 µM
CC(=O)OCCOc1cc2c([nH]c3ccccc32)c(C)c2cccc1-2,7.57 µM,11 µM,10.9 µM,4.84 µM,6.05 µM,9.79 µM,21.6 µM,7.6 µM,6.57 µM,6.76 µM,,9.11 µM,18.5 µM,3.16 µM,3.74 µM,> 30 µM,3.34 µM,15.2 µM,> 33.3 µM,8.22 µM
CC[C@]12C=CCN3CC[C@@]4(c5cc(Br)c(OC)cc5N(C)[C@H]4[C@@](O)(C(=O)N[C@@H](Cc4ccc(O)cc4)C(=O)OC)[C@@H]1O)[C@@H]32,> 100 µM,> 100 µM,37.9 µM,73.3 µM,33.9 µM,31.4 µM,30 µM,40.5 µM,34.8 µM,95.1 µM,,> 100 µM,> 100 µM,27.8 µM,33.9 µM,44 µM,98.6 µM,> 100 µM,46.4 µM,41.4 µM
CN1Cc2cc3c(cc2-c2ccccc21)OCO3,> 100 µM,> 100 µM,> 100 µM,> 100 µM,> 100 µM,> 100 µM,> 100 µM,> 100 µM,> 100 µM,> 100 µM,> 100 µM,> 100 µM,,> 100 µM,> 100 µM,> 100 µM,> 100 µM,,> 100 µM,
COC(=O)/C=C(/OC)[C@H](C)[C@H](/C=C/c1csc(-c2csc(C(C)C)n2)n1)OC,> 100 µM,> 100 µM,> 100 µM,> 100 µM,> 100 µM,19.9 µM,> 100 µM,> 100 µM,5.07 µM,> 100 µM,,> 100 µM,> 100 µM,> 100 µM,> 100 µM,> 100 µM,> 100 µM,> 100 µM,> 100 µM,> 100 µM
O=[N+]([O-])c1c(C=Nc2ccccc2)oc(-c2ccc3c(c2)OCO3)c1-c1ccc2c(c1)OCO2,> 100 µM,> 100 µM,> 100 µM,> 100 µM,> 100 µM,> 100 µM,> 100 µM,> 100 µM,> 100 µM,> 100 µM,> 100 µM,> 100 µM,> 100 µM,> 100 µM,> 100 µM,,> 100 µM,,> 100 µM,
CN(Cc1ccccc1)C(=NC#N)N(C)Cc1ccccc1,> 100 µM,> 100 µM,> 100 µM,> 100 µM,> 100 µM,> 100 µM,> 100 µM,> 100 µM,> 100 µM,> 100 µM,> 100 µM,,> 100 µM,> 100 µM,> 100 µM,,> 100 µM,,,
Cc1nc2c(o1)C(=O)c1ccccc1C2=Nc1ccc(N2CCOCC2)cc1,7.69 µM,61 µM,10.2 µM,30.4 µM,3.73 µM,3.2 µM,60.9 µM,26.8 µM,8.62 µM,3.27 µM,,33.6 µM,> 100 µM,14.4 µM,4.64 µM,> 36.8 µM,10.2 µM,7.9 µM,13.3 µM,5.73 µM
O=c1[nH]c(=O)n(C2CC(O)C(CO)O2)cc1OCC1CCCCC1 (stereo not given),> 100 µM,> 100 µM,> 100 µM,> 100 µM,> 100 µM,> 100 µM,> 100 µM,> 100 µM,> 100 µM,> 100 µM,,> 100 µM,> 100 µM,> 100 µM,> 100 µM,> 100 µM,> 100 µM,> 100 µM,> 100 µM,> 100 µM
O=C(Nc1ccc(Cl)c(Cl)c1)N1N=C2c3ccccc3CCC2C1c1ccc(Cl)cc1 (stereo not given),> 100 µM,> 100 µM,> 100 µM,> 100 µM,> 100 µM,> 100 µM,> 100 µM,> 100 µM,> 100 µM,> 100 µM,,> 100 µM,> 100 µM,> 100 µM,> 100 µM,> 100 µM,> 100 µM,> 100 µM,> 100 µM,> 100 µM
NS(=O)(=O)c1ccc(Nc2c3ccccc3nc3c(C(=O)NCCO)cccc23)cc1,0.338 µM,0.283 µM,0.557 µM,0.45 µM,0.303 µM,0.221 µM,0.302 µM,0.186 µM,0.267 µM,0.326 µM,,0.358 µM,0.649 µM,0.205 µM,0.315 µM,> 1 µM,0.532 µM,0.176 µM,0.0607 µM,0.311 µM
Cn1c2c3ccc(Cl)cc3nc-2c(Cl)c2ccccc21,43.9 µM,33.9 µM,34.5 µM,42 µM,50.8 µM,42.7 µM,49.9 µM,43.8 µM,72.3 µM,61.3 µM,,38.6 µM,> 100 µM,> 100 µM,37.4 µM,> 100 µM,32.6 µM,> 100 µM,> 100 µM,50.1 µM
COc1cc(/C=C2\C(=O)N(C(=O)c3ccc(NC(C)=O)cc3)N=C2C)ccc1O,> 100 µM,> 100 µM,> 100 µM,,,> 100 µM,> 100 µM,> 100 µM,> 100 µM,> 100 µM,> 100 µM,> 100 µM,,,> 100 µM,> 100 µM,> 100 µM,,> 100 µM,
COc1ccc(C=C(c2ccc(OCc3ccccc3)cc2)c2ccc(OCc3ccccc3)cc2)cc1,> 100 µM,> 100 µM,> 100 µM,> 100 µM,> 100 µM,> 100 µM,> 100 µM,> 100 µM,> 100 µM,> 100 µM,> 100 µM,> 100 µM,> 100 µM,> 100 µM,> 100 µM,,> 100 µM,,> 100 µM,
O=C1C2CN(Cc3ccccc3)CC1CN(CC1CC1)C2,> 100 µM,> 100 µM,> 100 µM,> 100 µM,> 100 µM,> 100 µM,> 100 µM,> 100 µM,> 100 µM,> 100 µM,> 100 µM,> 100 µM,> 100 µM,> 100 µM,> 100 µM,> 100 µM,> 100 µM,,,
COc1ccccc1/C=C1\CCC(CCN2CCOCC2)C1=O (stereo not given),> 100 µM,> 100 µM,> 100 µM,> 100 µM,> 100 µM,> 100 µM,> 100 µM,> 100 µM,> 100 µM,> 100 µM,> 100 µM,> 100 µM,,,> 100 µM,> 100 µM,> 100 µM,,> 100 µM,
